Experimental data from patent publication US9795140B2, “Molecules having pesticidal utility, and intermediates, compositions, and processes, related thereto” (priority 2015, dated 2017).

What was measured:
Format in all cases: in vivo
[1] = tested on: Beet Armyworm (Spodoptera exigua, LAPHEG); experiment: Bioassay on Beet Armyworm (BAW), 128-well diet tray assay; details: 168 h, 50 μg/cm^2 on artificial diet, second instar larvae, 25° C., five to seven days, average of eight wells, read-out: BAW % Control (or Mortality) rating
Summary of the method: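 Test molecule dissolved in acetone-water 90:10 is applied at 50 μg/cm^2 onto artificial diet and allowed to dry. Second instar larvae, one to five per well, are then added, and trays are vented and kept at 25° C. for five to seven days before mortality is scored.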

[2] = tested on: Cabbage Looper (Trichoplusia ni, TRIPNI); experiment: Bioassay on Cabbage Looper (CL), 128-well diet tray assay; details: 168 h, 50 μg/cm^2 on artificial diet, second instar larvae, 25° C., five to seven days, average of eight wells, read-out: CL % Control (or Mortality) rating
Summary of the method: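 Percent larval mortality, averaged across eight replicate wells, was scored after 5–7 days at 25 °C with a 14:10 photoperiod. Each well held 1 mL diet surface-treated at 50 μg/cm^2 with test molecule from a 90:10 acetone-water solution, then dried. Wells were infested with one to five second-instar cabbage loopers.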

[3] = tested on: Yellow Fever Mosquito (Aedes aegypti, AEDSAE); experiment: Bioassay on Yellow Fever Mosquito (YFM) larvae, 96-well plate; details: about 1 day-old larvae, room temperature, 3 days, scored on mortality
Summary of the method: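 Each well was scored for mortality after 3 days at room temperature under a non-evaporative lid. Test molecules came from DMSO masters (4000 ppm stock) diluted with water/acetone 90:10 and dispensed into six replicate plates, which were then infested with roughly 1-day-old larvae in liver-powder water.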

[4] = tested on: Green Peach Aphid (Myzus persicae, MYZUPE); experiment: Bioassay on Green Peach Aphid (GPA), foliar spray on cabbage seedlings; details: 72 h, 200 ppm spray on infested cabbage seedlings, three days, Abbott corrected % control, read-out: GPA % Control (or Mortality) rating
Procedure: Certain molecules disclosed in this document were tested against GPA using procedures described in the following example. In the reporting of the results, the “GPA & YFM Rating Table” was used (See Table Section).
Cabbage seedlings grown in 3-inch pots, with 2-3 small (3-5 cm) true leaves, were used as test substrate. The seedlings were infested with 20-50 GPA (wingless adult and nymph stages) one day prior to chemical application. Four pots with individual seedlings were used for each treatment. Test molecules (2 mg) were dissolved in 2 mL of acetone/methanol (1:1) solvent, forming stock solutions of 1000 ppm test molecule. The stock solutions were diluted 5× with 0.025% Tween 20 in water to obtain the solution at 200 ppm test molecule. A hand-held aspirator-type sprayer was used for spraying a solution to both sides of […] leaves until runoff. Reference plants (solvent check) were sprayed with the diluent only containing 20% by volume of acetone/methanol (1:1) solvent. Treated plants were held in a holding room for three days at approximately 25° C. and ambient relative humidity (RH) prior to grading. Evaluation was conducted by counting the number of live aphids per plant under a microscope. Percent control was measured using Abbott's correction formula (W. S. Abbott, “A Method of Computing the Effectiveness of an Insecticide” J. Econ. Entomol. 18 (1925), pp. 265-267) as follows. Corrected % Control=100*(X−Y)/X where X=No. of live aphids on solvent check plants and Y=No. of live aphids on treated plants. The results are indicated in the table entitled “Table ABC: Biological Results” (See Table Section).

Structure (SMILES) | mortality at 50 µg/cm2 [1] | mortality at 50 µg/cm2 [2] | YFM % Control (or Mortality) rating [3] | mortality at 200 ppm [4]
O=C(NOCC1CC1(F)F)c1cc(NC(=O)C2C(c3ccc(Cl)c(Cl)c3)C2(Cl)Cl)ccc1Cl (stereo not drawn) [F22, trans-N-2-Chloro-5-(2,2-dichloro-3-(3,4-dichlorophenyl)cyclopropane-1-carboxamido)-N-((2,2-difluorocyclopropyl)methoxy)benzamide] | 50 to 100% | 50 to 100% | B (More than 0-Less than 80) | 80 to 100%
CCCCNC(=O)c1cc(NC(=O)[C@H]2[C@H](c3cc(Cl)cc(Cl)c3)C2(Cl)Cl)ccc1Cl (relative stereo) [F45, trans-N-Butyl-2-chloro-5-(2,2-dichloro-3-(3,5-dichlorophenyl)cyclopropane-1-carboxamido)benzamide] | 50 to 100% | 50 to 100% | A (80-100) | 80 to 100%
O=C(NOc1ccccc1)c1cc(NC(=O)[C@H]2[C@H](c3cc(Cl)cc(Cl)c3)C2(Cl)Cl)ccc1Cl (relative stereo) [F29, trans-2-chloro-5-(2,2-dichloro-3-(3,5-dichlorophenyl)cyclopropane-1-carboxamido)-N-phenoxybenzamide] | 0% | 0% | A (80-100) | 0 to 80%
CC(C)(C)c1ccc(CNC(=O)c2cc(NC(=O)C3C(c4cc(Cl)cc(Cl)c4)C3(Cl)Cl)ccc2Cl)cc1 (stereo not drawn) [F36, trans-N-(4-(tert-Butylbenzyl)-2-chloro-5-(2,2-dichloro-3-(3,5-dichlorophenyl)cyclopropane-1-carboxamido)benzamide] | 0% | 0% | B (More than 0-Less than 80) | 0%
CN(CC(F)(F)F)C(=O)c1cc(NC(=O)[C@H]2[C@H](c3cc(Cl)cc(Cl)c3)C2(Cl)Cl)ccc1Cl (relative stereo) [F59, trans-2-Chloro-5-(2,2-dichloro-3-(3,5-dichlorophenyl)cyclopropane-1-carboxamido)-N-methyl-N-(2,2,2-trifluoroethyl)benzamide] | 50 to 100% | 50 to 100% | A (80-100) | 0 to 80%
O=C(NCC(F)F)c1cc(NC(=O)[C@H]2[C@H](c3cc(Cl)cc(Cl)c3)C2(Cl)Cl)ccc1Cl (relative stereo) [F48, trans-2-Chloro-5-(2,2-dichloro-3-(3,5-dichlorophenyl)cyclopropane-1-carboxamido)-N-(2,2-difluoroethyl)benzamide] | 50 to 100% | 50 to 100% | B (More than 0-Less than 80) | 80 to 100%
O=C(NCc1cccnc1)c1cc(NC(=O)[C@H]2[C@H](c3cc(Cl)cc(Cl)c3)C2(Cl)Cl)ccc1Cl (relative stereo) [F6, trans-2-Chloro-5-(2,2-dichloro-3-(3,5-dichlorophenyl)cyclopropane-1-carboxamido)-N-(pyridin-3-ylmethyl)benzamide] | 50 to 100% | 50 to 100% | A (80-100) | 0 to 80%
O=C(NCCc1ccc(F)cc1)c1cc(NC(=O)C2C(c3cc(Cl)c(Cl)c(Cl)c3)C2(Cl)Cl)ccc1Cl (stereo not drawn) [F20, trans-N-2-Chloro-5-(2,2-dichloro-3-(3,4,5-trichlorophenyl)cyclopropane-1-carboxamido)-N-(4-fluorophenethyl)benzamide] | 50 to 100% | 50 to 100% | A (80-100) | 0 to 80%
O=C(NCC(O)C(F)(F)F)c1cc(NC(=O)[C@H]2[C@H](c3cc(Cl)cc(Cl)c3)C2(Cl)Cl)ccc1Cl (relative stereo) [PF16, trans-2-Chloro-5-(2,2-dichloro-3-(3,5-dichlorophenyl)cyclopropane-1-carboxamido)-N-(3,3,3-trifluoro-2-hydroxypropyl)benzamide] | 50 to 100% | 50 to 100% | A (80-100) | 80 to 100%
O=C(NOCC1CC1(F)F)c1cc(NC(=O)C2C(c3cc(Cl)c(Cl)c(Cl)c3)C2(Cl)Cl)ccc1Cl (stereo not drawn) [F23, trans-N-2-Chloro-5-(2,2-dichloro-3-(3,4,5-trichlorophenyl)cyclopropane-1-carboxamido)-N-((2,2-difluorocyclopropyl)methoxy)benzamide] | 50 to 100% | 50 to 100% | B (More than 0-Less than 80) | 80 to 100%
